Like-named read-outs stand apart in the source and are kept apart here.
Experiments:
HpeG-2 cells [1] = assay: MTT tumor cell growth inhibition, HpeG-2; format: cell-based; settings: 48 h, read-out: Tumors growth-inhibitory activity (IC50) HpeG-2
Protocol: (§1) Using MTT method to determine the growth inhibition activity of the matrine compounds on Lovo, MGC-803, Mia-paca2, HpeG-2, A549, k562, and Panc-1 cells in vitro. Logarithmic growth phase of Lovo, MGC-803, Mia-paca2, HpeG-2, A549, k562, Panc-1 cells were inoculated into 96-well plates (purchased from Institute of Biochemical Cells, Chinese Academy of Sciences, and cultured according to conventional tumor cell culture methods) at a density of 4×10^4/mL and 180 μL/well; after the cells adhered to the wall, 20 μL of drug solution was added to each well and matined the final drug concentrations were 0.1 μM, 1 μM, 10 μM, 50 μM, 100 μM respectively. After 48 h, 5 mg/mL MTT solution was added (20 μL/well) and maintained in a CO2 incubator for 3-4 h. After that, discarding the supernatant carefully, and DMSO was added (200 μL/well) when the residual liquid was air-dried, and shook for 0.5-1 h until the residual crystals was dissolved. The absorbance OD was measured at 492 nm by a microplate reader. GraphPad Prism 5 software was used to calculate the IC50 value.

TNF-α = TNF-α activity inhibiting assay (LPS-stimulated peripheral blood, ELISA); format: cell-based, human; settings: compound 20 μM, LPS 10 ng/mL, 6 hours, diluted peripheral blood of healthy volunteers; for inhibition at 20 µM: Homo sapiens, read-out: TNF-α inhibition rate (%)
Protocol: Methods: Peripheral blood from healthy volunteers was collected with EDTA anticoagulant tubes. After being diluted 5-fold with 1640 medium (Gibco, USA), the blood was added to 96-well cell culture plates (Costar, USA) and then treated with 10 μL solution of the compound of general formula (I) of the present invention in DMSO (Sigma, USA), the final concentration of the compound was 20 μM with the final concentration of DMSO was 0.2%. After incubation for 60 minutes in an incubator at 37° C. under 5% CO2, 10 μL LPS (Sigma, USA) was added to the reaction system, and the final concentration was 10 ng/mL. After further culturing for 6 hours in the incubator at 37° C. under 5% CO2, the supernatant was collected. The content of TNF-α was determined by ELISA (BD Biosciences, USA). Absorbance was detected at OD450 nm with a microplate reader, with OD 650 nm as reference. The control, a solution containing 0.2% DMSO medium, was as 0% inhibition. Raw data and standard curves were recorded. The four-parameter drug inhibition curve was plotted by XL-fit software and the inhibition rate of each compound was calculated.

k562 cells [2] = assay: MTT tumor cell growth inhibition, k562; format: cell-based; settings: 48 h, read-out: Tumors growth-inhibitory activity (IC50) k562
Protocol: as §1

HpeG-2 cells [3] = assay: Anti-tumor activity of NK cells activated by compounds, HpeG-2 (CFSE/PI flow cytometry); format: cell-based; settings: tumor cells treated with 20 μM compound 48 h, then mixed with NK cells 5:1 for 4 hours; CFSE+PI+ tumor cells; read-out: HpeG-2 inhibition rate (%)
Protocol: (§2) Logarithmic growth phase of Lovo, HpeG-2, A549, k562, Panc-1 cells were collected and seeded in a 6-well plate at a density of 5×10^5/mL and 2 mL/well separately. The experimental group was treated with 20 μM final drug concentration of GJDx compounds, and the control group was treated with an equal volume of RPMI1640 medium. The groups were cultured at 37° C., saturated humidity, 5% CO2 for 48 h. After that, the cells of each group were collected, centrifuged and the supernatant was removed and resuspended in PBS at a density of 1×10^6/mL. Then 2 μL of CFSE stock solution (final concentration was 10 μM) was added into the cell suspension per 1 mL and cultured at 37° C. with 5% CO2 for 30 min, and then added 5-10 times of the volume of 4° C. pre-chilled RPM 1640 complete medium, and incubated on ice for 5 minutes, discarded the supernatant by centrifugation at 4° C., and wash the cells with fresh medium for 3 times. After that, mixing the labeled tumor cells and NK cells (the NK cell culture medium was α-MEM contained 1.5 g/L sodium bicarbonate, 12.5% fetal bovine serum, and 12.5% horse serum) according to the ratio of 5:1, the mixture cells was collected and washed with flow buffer twice after incubated for 4 hours, then 50 μg/mL PI was added, and incubated at room temperature for 15 minutes in the dark, and finally testing the percentage of CFSE^+PI^+ tumor cells on the flow cytometer.

Panc-1 cells [4] = assay: Anti-tumor activity of NK cells activated by compounds, Panc-1 (CFSE/PI flow cytometry); format: cell-based; settings: Homo sapiens, tumor cells treated with 20 μM compound 48 h, then mixed with NK cells 5:1 for 4 hours, CFSE+PI+ tumor cells, read-out: Panc-1 inhibition rate (%)
Protocol: as §2

Lovo cells [5] = assay: MTT tumor cell growth inhibition, Lovo; format: cell-based; settings: 48 h, read-out: Tumors growth-inhibitory activity (IC50) Lovo
Protocol: as §1

A549 cells [6] = assay: Anti-tumor activity of NK cells activated by compounds, A549 (CFSE/PI flow cytometry); format: cell-based; settings: Homo sapiens, tumor cells treated with 20 μM compound 48 h, then mixed with NK cells 5:1 for 4 hours, CFSE+PI+ tumor cells, read-out: A549 inhibition rate (%)
Protocol: as §2

k562 cells [7] = assay: Anti-tumor activity of NK cells activated by compounds, k562 (CFSE/PI flow cytometry); format: cell-based; settings: Homo sapiens, tumor cells treated with 20 μM compound 48 h, then mixed with NK cells 5:1 for 4 hours, CFSE+PI+ tumor cells, read-out: k562 inhibition rate (%)
Protocol: as §2

Mia-paca2 cells = assay: MTT tumor cell growth inhibition, Mia-paca2; format: cell-based; settings: read-out: Tumors growth-inhibitory activity (IC50) Mia-paca2
Protocol: as §1

MGC-803 cells = assay: MTT tumor cell growth inhibition, MGC-803; format: cell-based; settings: 48 h, read-out: Tumors growth-inhibitory activity (IC50) MGC-803
Protocol: as §1

A549 cells [8] = assay: MTT tumor cell growth inhibition, A549; format: cell-based; settings: 48 h, read-out: Tumors growth-inhibitory activity (IC50) A549
Protocol: as §1

Lovo cells [9] = assay: Anti-tumor activity of NK cells activated by compounds, Lovo (CFSE/PI flow cytometry); format: cell-based; settings: Homo sapiens, tumor cells treated with 20 μM compound 48 h, then mixed with NK cells 5:1 for 4 hours, CFSE+PI+ tumor cells, read-out: Lovo inhibition rate (%)
Protocol: as §2

Panc-1 cells [10] = assay: MTT tumor cell growth inhibition, Panc-1; format: cell-based; settings: 48 h, read-out: Tumors growth-inhibitory activity (IC50) Panc-1
Protocol: as §1

| SMILES | IC50 (HpeG-2 cells [1]) [µM] | inhibition at 20 µM (TNF-α) [%] | IC50 (k562 cells [2]; Homo sapiens) [µM] | inhibition at 20 µM (HpeG-2 cells [3]) [%] | inhibition at 20 µM (Panc-1 cells [4]) [%] | IC50 (Lovo cells [5]; Homo sapiens) [µM] | inhibition at 20 µM (A549 cells [6]) [%] | inhibition at 20 µM (k562 cells [7]) [%] | IC50 (Mia-paca2 cells; Homo sapiens, MIA PaCa-2, 48 h) [µM] | IC50 (MGC-803 cells; Homo sapiens) [µM] | IC50 (A549 cells [8]; Homo sapiens) [µM] | inhibition at 20 µM (Lovo cells [9]) [%] | IC50 (Panc-1 cells [10]; Homo sapiens) [µM] | TNF-α inhibition rate (%) (TNF-α) | IC50 (k562 cells [2]) [µM] | IC50 (Lovo cells [5]) [µM] | IC50 (Mia-paca2 cells; 48 h) [µM] | IC50 (MGC-803 cells) [µM] | IC50 (A549 cells [8]) [µM] | IC50 (Panc-1 cells [10]) [µM] |
| --- | --- | --- | --- | --- | --- | --- | --- | --- | --- | --- | --- | --- | --- | --- | --- | --- | --- | --- | --- | --- |
| O=C1c2ccccc2C(=O)N1C1CC[C@@H]2[C@H]3CCCN4CCC[C@@H](CN2C1=O)[C@@H]34 (stereo partly shown) [GJD 01] | 50 to 100 | ≥ 50 | 50 to 100 | > 50 | < 50 | 50 to 100 | > 50 | < 50 | > 100 | > 100 | 50 to 100 | ≥ 50 | > 100 |  |  |  |  |  |  |  |
| Nc1cccc2c1C(=O)N(C1CC[C@@H]3[C@H]4CCCN5CCC[C@@H](CN3C1=O)[C@@H]45)C2=O (stereo partly shown) [GJD 02] | < 50 | > 50 | < 50 | > 50 | > 50 | < 50 | > 50 | > 50 | 50 to 100 | 50 to 100 | 50 to 100 | > 50 | < 50 |  |  |  |  |  |  |  |
| N#Cc1cccc2c1C(=O)N(C1CC[C@@H]3[C@H]4CCCN5CCC[C@@H](CN3C1=O)[C@@H]45)C2=O (stereo partly shown) [GJD 06] | < 50 | > 50 | 50 to 100 |  |  | 50 to 100 |  |  | 50 to 100 | > 100 | 50 to 100 |  | 50 to 100 |  |  |  |  |  |  |  |
| O=C1c2cccnc2C(=O)N1C1CC[C@@H]2[C@H]3CCCN4CCC[C@@H](CN2C1=O)[C@@H]34 (stereo partly shown) [GJD 15] |  |  |  | > 50 | > 50 |  | > 50 | < 50 |  |  |  | > 50 |  |  |  |  |  |  |  |  |
| O=C1[C@H](N2C(=O)c3ccccc3C2=O)CC[C@@H]2[C@H]3CCCN4CCC[C@@H](CN12)[C@@H]34 [GJD 26] |  |  |  | > 50 | > 50 |  | > 50 | > 50 |  |  |  | > 50 |  |  |  |  |  |  |  |  |
| O=C1c2cccc([N+](=O)[O-])c2CN1C1CC[C@@H]2[C@H]3CCCN4CCC[C@@H](CN2C1=O)[C@@H]34 (stereo partly shown) [GJD 31] |  |  |  | > 50 | ≥ 50 |  | > 50 | > 50 |  |  |  | > 50 |  |  |  |  |  |  |  |  |
| O=C1c2ccccc2CN1C1CC[C@@H]2[C@H]3CCCN4CCC[C@H](CN2C1=O)[C@@H]34 (stereo partly shown) [GJD 42] |  |  |  | > 50 | < 50 |  | > 50 | < 50 |  |  |  | > 50 |  |  |  |  |  |  |  |  |
| CC(=O)Oc1ccccc1C(=O)NC1CC[C@@H]2[C@H]3CCCN4CCC[C@@H](CN2C1=O)[C@@H]34 (stereo partly shown) [GJD 51] |  |  |  | > 50 | < 50 |  | < 50 | < 50 |  |  |  | < 50 |  |  |  |  |  |  |  |  |
| O=C(NC1CC[C@@H]2[C@H]3CCCN4CCC[C@@H](CN2C1=O)[C@@H]34)c1ccc(OC(F)F)c(OCC2CC2)c1 (stereo partly shown) [GJD 52] | < 50 | > 50 | 50 to 100 |  |  | 50 to 100 |  |  | 50 to 100 | 50 to 100 | < 50 |  | 50 to 100 |  |  |  |  |  |  |  |
| O=C(NC1CC[C@@H]2[C@H]3CCCN4CCC[C@@H](CN2C1=O)[C@@H]34)c1cc(Cl)ccc1O (stereo partly shown) [GJD 55] | < 50 |  | 50 to 100 | < 50 | > 50 | 50 to 100 | < 50 | < 50 | 50 to 100 | > 100 | < 50 | < 50 | 50 to 100 |  |  |  |  |  |  |  |
| Nc1cccc2c1C(=O)N(C1CC[C@@H]3[C@H]4CCC[N+]5([O-])CCC[C@@H](CN3C1=O)[C@@H]45)C2=O (stereo partly shown) [GJD 63] |  |  |  | > 50 | > 50 |  | > 50 | > 50 |  |  |  | > 50 |  |  |  |  |  |  |  |  |
| O=C1c2cccc([N+](=O)[O-])c2C(=O)N1C1CC[C@@H]2[C@H]3CCC[N+]4([O-])CCC[C@@H](CN2C1=O)[C@@H]34 (stereo partly shown) [GJD 66] | < 50 |  |  |  |  |  |  |  |  |  |  |  |  | <50 | < 50 | < 50 | 50 to 100 | 50 to 100 | < 50 | < 50 |
| O=C1CCC[C@@H]2[C@H]3CCCN4CCC[C@@H](CN12)[C@@H]34 [Matrine, matrine] | 50 to 100 | < 50 | > 100 |  |  | 50 to 100 |  |  | > 100 | > 100 | > 100 |  | > 100 |  |  |  |  |  |  |  |

— patent US20210221812A1, “MATRINE a-KETOAMINE COMPOUNDS, PREPARATION METHOD THEREFOR AND USE THEREOF” (SHANGHAI XINGYE PHARMACEUTICAL TECHNOLOGY CO., LTD, priority 2018, published 2021)
